The target of one assay is T1, human 5-HT2B receptor (Homo sapiens, UniProt P41595).
T1 construct: expressed in transfected cells; host or cells: HEK293-EBNA
The assay is described as follows: 5-HT2B receptor binding test. As to conditions: human 5-HT2B receptor expressing HEK293-EBNA cell membrane; radio-ligand [3H] Mesulergine or [3H] Serotonin. The procedure: Effects of the compound (I) of the present invention were verified by the following pharmacological tests. • Test Method (1) 5-HT2B Receptor Binding Test • (i) Preparation of Membrane Sample
(§1) Cultured human 5-HT2B receptor expressing HEK293-EBNA cells were washed with a phosphate buffer (PBS)(−). The cells were peeled off with a scraper in the presence of PBS(−), and the cells were recovered by centrifugation (1,000 rpm, 10 minutes, 4° C.). In the presence of 5 mM tris-hydrochloric acid (Tris-HCl) (pH 7.4) buffer, homogenized using a homogenizer (registered trademark: Polytron (PTA 10-TS)), and centrifugation-treated (40,000×g, 10 minutes, 4° C.). In the presence of 50 mM Tris-HCl (pH 7.4) buffer, suspended using Glass-Teflon (registered trademark) homogenizer. By carrying out centrifugation treatment (40,000×g, 10 minutes, 4° C.), suspended in 50 mM Tris-HCl (pH 7.4) and stored at −80° C.
(§2) (ii) Receptor Binding Test
A total volume of 500 μl containing 50 mM Tris-HCl, a 4 mM CaCl2 (pH 7.4) buffer, a human 5-HT2B receptor expressing HEK293-EBNA cell membrane preparation and a radio-ligand [^3H] Mesulergine (3.1 TBq/mmol;) or [^3H] Serotonin (5-Hydroxytryptamine) (3.7 TBq/mmol;) was incubated at 25° C. for 1 hour. The compound was dissolved in 100% dimethyl sulfoxide (DMSO) and diluted to respective concentrations. Binding quantity in the presence of 1 μM ritanserin was regarded as the nonspecific binding, and a result of subtracting the nonspecific binding quantity from the total binding quantity was regarded as the specific binding quantity. After adding 4 ml of 50 mM Tris-HCl buffer (pH 7.4) and filtering under a reduced pressure using a GF/B glass filter, the filter was washed (4 ml×3) with the same buffer. By soaking the glass filter in 5 ml of a liquid scintillator (trade name: Aquasol-2), the radioactivity quantity was measured using a liquid scintillation counter. […] Ex represents the Example compound number which is described later.

Another assay deals with T2, human 5-HT7 receptor (Homo sapiens, UniProt P34969).
T2 construct: expressed in transfected cells; host or cells: CHO
T2 sequence (P34969 whole entry): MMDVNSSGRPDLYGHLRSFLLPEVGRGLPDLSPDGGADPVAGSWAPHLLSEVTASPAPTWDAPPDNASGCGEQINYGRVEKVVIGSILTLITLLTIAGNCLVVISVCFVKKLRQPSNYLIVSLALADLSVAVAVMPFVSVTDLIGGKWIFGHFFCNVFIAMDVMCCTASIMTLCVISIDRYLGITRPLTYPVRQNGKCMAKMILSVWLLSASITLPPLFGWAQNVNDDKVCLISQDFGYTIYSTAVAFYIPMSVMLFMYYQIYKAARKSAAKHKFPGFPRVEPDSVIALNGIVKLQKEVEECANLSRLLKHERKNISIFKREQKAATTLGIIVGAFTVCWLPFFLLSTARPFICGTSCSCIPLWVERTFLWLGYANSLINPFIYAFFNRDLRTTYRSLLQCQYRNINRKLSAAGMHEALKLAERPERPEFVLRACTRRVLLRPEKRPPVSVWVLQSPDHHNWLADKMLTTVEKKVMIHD
Kind of assay: 5-HT7 receptor binding test. Conditions: human 5-HT7 receptor expressing CHO cell membrane; radio-ligand [3H] 5-HT. The procedure: Test Method (2) 5-HT7 Receptor Binding Test (i) Preparation of Membrane Sample
as §1, with “5-HT7” for “5-HT2B”, “CHO” for “HEK293-EBNA”, “PBS(−).” for “a phosphate buffer (PBS)(−).”, “Tris-HCl” for “tris-hydrochloric acid (Tris-HCl)”
as §2
A total volume of 500 μl containing 50 mM Tris-HCl, a 4 mM CaCl2 (pH 7.4) buffer, a human 5-HT7 receptor expressing CHO cell membrane preparation and a radio-ligand [^3H] 5-HT (3.40 TBq/mmol) was incubated at 25° C. for 1 hour. The compound was dissolved in 100% DMSO and diluted to respective concentrations.
Binding quantity in the presence of 10 μM metergoline was regarded as the nonspecific binding, and a result of subtracting the nonspecific binding quantity from the total binding quantity was regarded as the specific binding quantity. After adding 4 ml of 50 mM Tris-HCl buffer (pH 7.4) and filtering under a reduced pressure using a GF/B glass filter, the filter was washed (4 ml×3) with the same buffer. By soaking the glass filter in 5 ml of a liquid scintillator (trade name: Aquasol-2), the radioactivity quantity was measured using a liquid scintillation counter.

In a further assay the test system is male Wistar rats. Kind of assay: Defecation suppressing effect at the time of restraint stress loading (rat restraint stress defecation model). The format is in vivo. As to conditions: for defecation-suppressing action: 10 mg/kg p.o., restraint stress loaded 30 minutes after the administration; for number of feces excreted, in comparison with the non-administration group: 1, 3 or 10 mg/kg administration group, N=10; for dose from which a significant suppressing action (number of feces excreted) is shown: p.o. The method, then: Test Method (4) Defecation Suppressing Effect at the Time of Restraint Stress Loading
The IBS-treating effect of the compound (I) of the present invention was evaluated using a test method in which the amount of excreted feces is measured by loading a restraint stress on rats (see “The Journal of Pharmacology Experimental Therapeutics”, (USA), 1992, vol. 261, p. 297-303).
The agent to be tested was administered to male Wistar rats (body weight 250 to 320 g, 10 animals for each group), and a restraint stress was loaded 30 minutes to 3 hours thereafter. A restraint cage (trade name: KN-468, 265 mm in width×95 mm in length×200 mm in height, Natsume Seisakusho, Tokyo) was used for the restraint stress loading, and the number of feces excreted during 1 hour after the stress loading was counted.

A further assay concerns 5-HT2B receptor. Conditions: versus 5-HT1A, 5-HT1B, 5-HT2A, 5-HT2C, 5-HT3, 5-HT6, 5-HT7, α1, M1, D2 and the like; cited from earlier work.
[1] abbreviates: restraint stress loaded 1 hour after the administration.

What is called Ki is the dissociation constant of the complex between target and ligand, obtained from inhibition or displacement. A lower Ki goes with tighter binding.

Counter-ions that a name gives are not always drawn.

T1 sequence (P41595 whole entry): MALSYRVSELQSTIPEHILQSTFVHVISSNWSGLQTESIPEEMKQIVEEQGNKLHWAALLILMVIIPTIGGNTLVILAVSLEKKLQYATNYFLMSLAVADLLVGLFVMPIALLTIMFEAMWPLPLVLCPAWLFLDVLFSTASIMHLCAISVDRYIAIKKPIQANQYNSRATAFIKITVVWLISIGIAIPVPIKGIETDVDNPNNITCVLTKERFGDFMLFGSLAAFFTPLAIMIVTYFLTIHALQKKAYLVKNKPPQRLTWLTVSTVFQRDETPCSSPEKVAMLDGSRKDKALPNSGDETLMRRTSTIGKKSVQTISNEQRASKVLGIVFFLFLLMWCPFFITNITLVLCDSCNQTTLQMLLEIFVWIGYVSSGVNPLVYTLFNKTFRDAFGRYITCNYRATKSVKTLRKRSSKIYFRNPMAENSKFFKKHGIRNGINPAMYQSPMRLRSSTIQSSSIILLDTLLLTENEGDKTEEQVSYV

In the case of `CCc1c(CC)n(Cc2ccc(F)cc2)c2ccc(C(=O)N[C@H]3CCN(C)C3)cc12` [Example 237], the Ki is 0.22 nM at human 5-HT2B receptor and 4.9 nM on human 5-HT7 receptor.

In the case of `CCc1c(C)n(Cc2ccc(F)cc2)c2ccc(C(=O)N[C@@H]3CCN(C)C3)cc12` [Example 238], the Ki at human 5-HT2B receptor is 0.24 nM; on human 5-HT7 receptor, 8 nM.

For `NC(N)=NC(=O)c1ccc2c(c1)[nH]c(=O)n2Cc1ccc(F)cc1` [Example 10, N-[1-(4-fluoro-benzyl)-2-oxo-2,3-dihydro-1H-benzimidazole-5-carbonyl]-guanidine hydrochloride], the inhibition constant Ki at human 5-HT2B receptor is 2.7 nM; on human 5-HT7 receptor it was 2.8 nM.

Take `CC1CCN(CC[C@H]2CCCN2S(=O)(=O)c2cccc(O)c2)CC1` [SB-269970, (R)-3-(2-(2-(4-methylpiperidin-1-yl)ethyl)pyrrolidine-1-sulfonyl)phenol, reference compound]: in the assay with male Wistar rats, the defecation-suppressing action result is recorded as “did not show the defecation-suppressing action” and the “number of feces excreted, in comparison with the non-administration group” value is on record as “Significant difference was not found”.

`CCc1c(C)n(Cc2ccc(F)cc2)c2ccc(C(=O)NCCN(C)C)cc12` [Example 226]: the inhibition constant (Ki) at human 5-HT2B receptor was found to be 0.19 nM; at human 5-HT7 receptor, 4.3 nM. Further, in the assay with male Wistar rats (setting [1]), the “dose from which a significant suppressing action (number of feces excreted) is shown” value is on record as ≥ 1 mg/kg.

Turning to `Cc1nc2cc(C(=O)N=C(N)N)ccc2n1Cc1ccc(F)cc1` [Example 244, N-(diaminomethylene)-1-(4-fluorobenzyl)-2-methyl-1H-benzimidazol-5-carboxamide], the “dose from which a significant suppressing action (number of feces excreted) is shown” value with male Wistar rats (setting [1]) is ≥ 3 mg/kg.

In the case of `CC(=O)c1c(C)n(Cc2ccc(F)cc2)c2ccc(C(=O)N=C(N)N)cc12` [Example 104, 3-acetyl-N-(diaminomethylene)-1-(4-fluorobenzyl)-2-methyl-1H-indole-5-carboxamide], the Ki at human 5-HT2B receptor came to 0.088 nM; on human 5-HT7 receptor it was 1.3 nM.

With `CCc1c(C)n(Cc2ccc(F)cc2)c2ccc(C(=O)N[C@H]3CCN(C)C3)cc12` [Example 236], the Ki on human 5-HT2B receptor was found to be 0.29 nM; at human 5-HT7 receptor, 2.6 nM. For the same compound, the “dose from which a significant suppressing action (number of feces excreted) is shown” value with male Wistar rats (restraint stress loaded 3 hours after the administration) is recorded as ≥ 0.3 mg/kg.

Regarding `Cc1c(S(C)(=O)=O)c2cc(C(=O)N=C(N)N)ccc2n1Cc1ccc(F)cc1` [Example 102], the Ki was 0.12 nM on human 5-HT2B receptor and 0.36 nM at human 5-HT7 receptor.

As for `Cc1c(C)n(Cc2ccc(F)cc2)c2ccc(C(=O)NCCN(C)C)cc12` [Example 156], the Ki at human 5-HT2B receptor and at human 5-HT7 receptor was 3.4 nM in each case.

Turning to `Cc1c(C)n(Cc2ccc(F)cc2)c2ccc(C(=O)N=C(N)N)cc12` [Example 24], the Ki on human 5-HT2B receptor stood at 0.24 nM; on human 5-HT7 receptor, 0.66 nM.

In the case of `CCc1c(C)n(Cc2ccc(F)cc2)c2ccc(C(=O)N=C(N)N)cc12` [Example 103, N-(diaminomethylene)-3-ethyl-1-(4-fluorobenzyl)-2-methyl-1H-indole-5-carboxamide], the Ki on human 5-HT2B receptor came out at 0.12 nM; at human 5-HT7 receptor, 1.3 nM. The “dose from which a significant suppressing action (number of feces excreted) is shown” value in the assay with male Wistar rats (setting [1]) was ≥ 1 mg/kg.

On to `CC(C)c1cc(-c2ccc(F)c3ccccc23)nc(N)n1` [RS-127445, 2-amino-4-(4-fluoronaphth-1-yl)-6-isopropylpyrimidine, reference compound], for which the “5-HT2B receptor-selective by a factor” value in the assay with 5-HT2B receptor was ≥ 1000 times. In addition, in the assay with male Wistar rats, the defecation-suppressing action result is “did not show defecation-suppressing action” and the “number of feces excreted, in comparison with the non-administration group” value is “Significant difference was not found”.

Values taken from patent US7985764B2, “Amide derivative or salt thereof” (Astellas Pharma Inc., priority 2006, dated 2011).
